pIC50: −log10 of the molar value. Counter-ions that a name gives are not always drawn. Like-named read-outs stand apart in the source and are kept apart here.
What was measured:
[1] = tested on: TF-induced plasma thrombin generation; assay: TF-induced plasma thrombin generation assay (plasma pool); format: biochemical, human; details: for pIC50: read-out: IC50
Excerpt: For the in vitro studies, a plasma pool was generated from blood collected via venipuncture into 3.2% (1:9 v/v) tri-sodium citrate from a minimum of ten donors. The specific thrombin substrate used was Z-GGR-AMC (Bachem). Tissue factor (Innovin, “TF”) was purchased from Dade Behring. Rabbit anti-human TF IgG and purified recombinant human TF were from American Diagnostica. COATEST LMW Heparin/Heparin Kits were from Chomogenix. Source of anticoagulants tested were as follows: enoxaparin sodium (Aventis Pharmaceuticals), fondaparinux sodium (Glaxo Smith Kline), bivalirudin (The Medicines Company), fXa inhibitor C921-78 (Betz, A. et al. Biochem., 1999; 38-14582-14591); rivaroxaban and razaxaban.
Thrombin generation in the plasma pool in the absence and presence of various anticoagulants and in warfarin treated patients was initiated by the addition of Innovin and calcium. Thrombin generation was measured by the continuous signal generated by cleavage of thrombin substrate over a 10 min period in a FlexStation fluorescence reader ([…]). The fluorescence signal (Max-Min relative fluorescence units) is presented as units (RFU) or arbitrary unites (AU) of thrombin generation and anti-fXa units were measured by Coatest. Quantitation of TF concentration in Innovin was carried out by immunoblotting with rabbit anti-human TF IgG, followed by densitometry and comparison with purified human TF (residues 1-263, expressed in baculovirus).

[2] = Randomized trial after total knee replacement: bleeding and tolerability; parameters: species or system human; details: in vivo
Excerpt: The primary efficacy endpoint was the incidence of venous thromboembolism (“VTE”) (symptomatic or asymptomatic deep vein thrombosis on a mandatory unilateral venogram or symptomatic pulmonary embolism) through Day 10 to 14. Safety endpoints included the incidence of major and clinically significant nonmajor bleeds through the day after venography. All efficacy and bleeding endpoints were adjudicated by a blinded, independent central adjudication committee.

[3] = tested on: prothrombin time in human plasma; assay: In vitro extension of PT in human plasma
[4] = tested on: prothrombin time in rat plasma; assay: In vitro extension of PT in rat plasma
[5] = tested on: prothrombin time in rabbit plasma; assay: In vitro extension of PT in rabbit plasma
[6] = tested on: thrombin, factor VIIa, factor IXa, activated protein C, tissue plasminogen activator, plasmin and trypsin; assay: Amidolytic assays for related proteases (specificity); format: biochemical; details: relative to human fXa
[7] = tested on: thrombus growth (platelet deposition, fibrin deposition) in arteriovenous shunt; assay: Thrombogenic device in arteriovenous shunt in baboons; format: in vivo, baboon
[8] = tested on: thrombin generation, anti-Xa activity, aPTT, PT, INR in patient plasma; assay: Randomized trial after total knee replacement: pharmacodynamic measurements; format: in vivo, human
Experimental: Blood samples for assessment of plasma drug concentrations and pharmacodynamic measurements were obtained at screening, 1 to 4 hours after administration of the morning dose of study medication on Day 2, on the day of discharge and prior to the mandatory venogram on Day 10 to 14. Plasma samples were analyzed for betrixaban using high-performance-liquid-chromatography with tandem mass spectrometry. The method was validated for a range from 0.100-50.0 ng/mL, based on the analysis of 0.2 mL plasma. Quantitation was performed using a calibration standard curve generated from weighted least square regression analysis. […] The anti-Xa unit assay was adapted from the Coatest LMW heparin kit (Diapharma) and modified to a 96-well plate format. In this assay, standards and patient samples were assayed in duplicate and the limit of quantification was 0.05 anti-Xa U/mL. Thrombin generation was initiated by the addition of tissue factor (Innovin, Dade Behring) and calcium to citrate anticoagulated patient plasma (0.1 mL). Formation of thrombin was measured by cleavage of a specific thrombin substrate (Z-GGR-AMC, Bachem) over a 10 minute period. Relative fluorescence units were measured in a FlexStation fluorescence reader (Molecular Devices) and used for quantitation of thrombin generation. All patient plasma samples were assayed in triplicate and inhibition of thrombin generation reported as change from baseline relative fluorescent unit for each individual.

[9] = tested on: prothrombin time in baboon plasma; assay: In vitro extension of PT in baboon plasma
[10] = tested on: tissue factor initiated thrombin generation in human whole blood; assay: Whole blood prothrombinase / tissue factor initiated thrombin generation assay; format: biochemical
Experimental: Thrombin activity was quantitated by cleavage of the fluorogenic substrate. […] Relative fluorescence unit (RFU) measurements of representative donor is shown.
Thrombin generation assays were performed as described in Example 4, with compounds added ex vivo to human whole blood. PT and aPTT values in various species determined from compounds added to platelet poor plasma. Samples were run on an ACL 3000plus (Coulter), PT determined using Dade® Thromboplastin C plus and aPTT determined using Dade® Actin® FS Activated PTT reagent.

[11] = Plasma concentration of betrixaban in baboon model; format: in vivo
[12] = tested on: venous thromboembolism; assay: Randomized trial after total knee replacement: VTE incidence; format: in vivo, human; details: for VTE % (95% CI): 10 to 14 days after TKR
Experimental: The primary efficacy endpoint was the incidence of venous thromboembolism (“VTE”) (symptomatic or asymptomatic deep vein thrombosis on a mandatory unilateral venogram or symptomatic pulmonary embolism) through Day 10 to 14. Safety endpoints included the incidence of major and clinically significant nonmajor bleeds through the day after venography. All efficacy and bleeding endpoints were adjudicated by a blinded, independent central adjudication committee. […] Enoxaparin was administered subcutaneously 12 to 24 hours after surgery and every 12 hours (q 12 h) thereafter. Treatment continued for 10 to 14 days unless a protocol-specified stopping criterion had been met. After discharge from the hospital, patients self-administered study medication. The last dose of study medication was administered the morning of the scheduled mandatory venography of the operated leg (Day 10 to 14).

[13] = tested on: thrombus mass in rabbit abdominal vena cava; assay: Rabbit vena cava thrombosis model (clot accretion on cotton threads); format: in vivo; details: 3 mg/kg IV infusion
Experimental: Multiple doses of betrixaban were evaluated in three animal models. […] Efficacy in rabbit venous thrombosis was determined by measuring the thrombus accretion on cotton threads placed in the vena cava by means of a catheter inserted into the left femoral vein, as described by Hollenbach et al., Thromb. Haemost. 1994; 71:357-362, incorporated by reference in its entirety herein. The decrease in thrombus weight following a two hour infusion of compound was expressed relative to vehicle control. See also Sinha, et al., Eur. J. Pharmacology. 395:51-59 (2000), incorporated by reference in its entirety herein.

[14] = tested on: vessel patency in FeCl3 induced thrombosis in rat carotid artery; assay: Rat carotid artery FeCl3 induced thrombosis model; format: in vivo
Experimental: Rat FeCl3 model adapted from Kurz, K. D. et al. Thromb. Res. 1990; 60(4):269-280, incorporated by reference in its entirety herein, utilizing the left carotid artery. A stenosis of the artery was applied with a silk ligature reducing blood flow by 50% with a light crush injury followed by application of 50% FeCl3 for the duration of the experiment. Blood flow was monitored via pulsed Doppler flow probe and recorded for 90 minutes post-FeCl3 application. Enoxaparin and Betrixaban administered IV. Clopidogrel administered orally Q.D. for 3 days.

[15] = tested on: clotting parameters (ACT, PT, aPTT, anti fXa units, plasma thrombin generation); assay: Ex vivo coagulation measurements and bleeding time in baboon model
[16] = Salt selection properties; format: physicochemical
[17] = tested on: PT and aPTT; assay: Ex vivo PT and aPTT in rat carotid model; details: 3 mg/kg/day
Experimental: The third model investigated inhibition of ^111In labeled platelet deposition on dacron grafts and expansion chambers placed in femoral arteriovenous shunts in baboons. In all models tested, betrixaban and enoxaparin were administered as IV infusions and clopidogrel was dosed orally for three days. Ex vivo PT and aPTT were measured in all models.

[18] = Baboon Arteriovenous, 0.49 mg/kg

CN(C)Cc1nccn1-c1ccc(NC(=O)c2cc(C(F)(F)F)nn2-c2ccc3onc(N)c3c2)c(F)c1 [Razaxaban]
pIC50 [1]: 6.90

Bivalirudin
IC50 [1]: 2.4 µg/mL

COc1ccc(NC(=O)c2ccc(C(=N)N(C)C)cc2)c(C(=O)Nc2ccc(Cl)cn2)c1 [betrixaban]
safety and tolerability [2]: safe and well tolerated | concentration for 2× change of PT [3]: 0.4 µM | concentration for 2× change of PT [4]: 8.9 µM | concentration for 2× change of PT [5]: 1.6 µM | specificity against related proteases [6]: greater than 86,000 fold | Antithrombotic Activity (arterial) [7, 18]: 32% inhibition | Antithrombotic Activity (venous) [7, 18]: 90% inhibition | Platelet deposition at 140 minutes ([7]; Dose 3 (26-38 ng/ml), P<0.05): significant decrease compared to control | % Inhibition of Fibrin Formation ([7]; Dosed Group 1): −0.38% | % Inhibition of Platelet Deposition ([7]; Dosed Group 1): 29.71% | % Inhibition of Fibrin Formation ([7]; Dosed Group 2): 37.50% | % Inhibition of Platelet Deposition ([7]; Dosed Group 2): 44.20% | % Inhibition of Fibrin Formation ([7]; Dosed Group 3): 71.97% | % Inhibition of Platelet Deposition ([7]; Dosed Group 3): 65.22% | % Inhibition of Fibrin Formation ([7]; Dosed Group 4): 87.12% | % Inhibition of Platelet Deposition ([7]; Dosed Group 4): 88.77% | Platelet deposition at 140 minutes ([7]; dose 4 (54-88 ng/ml), P value<0.01): significant decrease compared to control | effect on anti-Xa activity ([8]; 15 mg, compared with enoxaparin): less | effect on the inhibition of thrombin generation ([8]; 40 mg, TKR patients, compared with enoxaparin): more pronounced | effect on anti-Xa activity ([8]; 40 mg, compared with enoxaparin): similar | other coagulation parameters (i.e. aPTT, PT and INR) ([8]; TKR patients): did not appreciably affect | concentration for 2× change of PT [9]: 1 µM | suppressing both markers of thrombin generation, compared to fondaparinux (200 nM) ([10]; 200 nM, human whole blood): more potent | TAT and F1.2 generation ([10]; human whole blood): significantly inhibited | tissue factor initiated thrombin generation ([10]; human whole blood): dose-dependent inhibition | platelet mediated prothrombinase activity ([10]; whole blood prothrombinase assay): dose-dependently inhibited | Plasma Concentration Range of Betrixaban ([11]; Dosed Group 1): 7 to 10 ng/mL | Plasma Concentration Range of Betrixaban ([11]; Dosed Group 2): 13 to 21 ng/mL | Plasma Concentration Range of Betrixaban ([11]; Dosed Group 3): 26 to 38 ng/mL | Plasma Concentration Range of Betrixaban ([11]; Dosed Group 4): 54 to 88 ng/mL | VTE % (95% CI) ([12]; 15 mg BID orally): 20 (12-32) % | VTE % (95% CI) ([12]; 40 mg BID orally): 15 (8-27) % | preventing VTE after TKR ([12]; in vivo): effective | Antithrombotic Activity [13]: 76% inhibition | Antithrombotic Activity ([14]; 19.1 mg/kg IV): 90% patency | Template bleeding times ([15]; any of the betrixaban treated animals): not perturbed | Anti fXa units ([15]; highest dose): 0.31 Units/ml | inhibition of plasma thrombin generation (ex vivo) ([15]; highest dose): 72% | inhibition of plasma thrombin generation (ex vivo) ([15]; lowest dose): 13% | Anti fXa units ([15]; three lower doses): below the limit of quantitation

O=C(NC[C@H]1CN(c2ccc(N3CCOCC3=O)cc2)C(=O)O1)c1ccc(Cl)s1 [Rivaroxaban]
pIC50 [1]: 7.10

COc1ccc(NC(=O)c2ccc(C(=N)N(C)C)cc2)c(C(=O)Nc2ccc(Cl)cn2)c1 [betrixaban maleate]
crystallinity, thermal and hydrolytic stability [16]: excellent

COC(=O)[C@H](c1ccccc1Cl)N1CCc2sccc2C1 [Clopidogrel]
Antithrombotic Activity ([14]; 3 mg/kg/day orally for 3 days): 80% patency | APTT fold change [17]: 1.03 fold | PT fold change [17]: 1.01 fold

Reference: patent US8404724B2, “Unit dose formulations and methods of treating thrombosis with an oral factor Xa inhibitor” (Millennium Pharmaceuticals, Inc., priority 2006, dated 2013)
